Laboratory results as given in article PMC8286840, “Identifying SARS-CoV-2 antiviral compounds by screening for small molecule inhibitors of Nsp3 papain-like protease” (Biochemical Journal, 2021).
Counter-ions that a name gives are not always drawn. Like-named read-outs stand apart in the source and are kept apart here.

Legend:
[1] = molecular target: T1, SARS-CoV-2 PLpro (nsp3 1564–1878) (Severe acute respiratory syndrome coronavirus 2, UniProt P0DTD1); test: biochemical; design: FRET-quenched peptide (Pro3) cleavage by PLpro, 10 min pre-incubation, slope over 20 min, normalised to no-compound control; details: low concentration screen, read-out: % of control remaining
[2] = molecular target: T1, SARS-CoV-2 PLpro (nsp3 1564–1878); test: biochemical; design: FRET-quenched peptide (Pro3) cleavage by PLpro, 10 min pre-incubation, slope over 20 min, normalised to no-compound control; details: high concentration screen, read-out: % of control remaining

C1N2CN3CN1CN(C2)C3 [Methenamine (Mandelamine)]
remaining activity at 1.25 µM ([1]; Well no.=4975): 96.3% | remaining activity at 3.75 µM ([2]; Well no.=4975): 96.7%

CC(CCc1ccccc1)NCC(O)c1ccc(O)c(C(N)=O)c1 (stereo not shown) [Labetalol hydrochloride]
remaining activity at 1.25 µM ([1]; Well no.=975): 102% | remaining activity at 3.75 µM ([2]; Well no.=975): 101%

CCCCOc1c(C(=O)c2c(F)cc(C)cc2F)c[nH]c2nncc1-2 [BMS-265246]
remaining activity at 1.25 µM ([1]; Well no.=5010): 95.8% | remaining activity at 3.75 µM ([2]; Well no.=5010): 96.6%

NC(CCCCCP(=O)(O)O)C(=O)O (racemic)
remaining activity at 1.25 µM ([1]; Well no.=17): 100% | remaining activity at 3.75 µM ([2]; Well no.=17): 97.5%

NCC(O)c1ccc(O)cc1 (stereo not shown) [Octopamine (hydrochloride)]
remaining activity at 1.25 µM ([1]; Well no.=6713): 98.8% | remaining activity at 3.75 µM ([2]; Well no.=6713): 98.6%

Oc1ccc(C2CNCc3sccc32)cc1O (stereo not shown) [SKF 89626]
remaining activity at 1.25 µM ([1]; Well no.=1456): 98.5% | remaining activity at 3.75 µM ([2]; Well no.=1456): 99.7%

CCCOc1ccc2[nH]c(NC(=O)OC)nc2c1 [Oxibendazole]
remaining activity at 1.25 µM ([1]; Well no.=2061): 99% | remaining activity at 3.75 µM ([2]; Well no.=2061): 98.3%

C[C@@H](C(=O)Nc1ccc(Cl)cc1)[C@H]1CC[C@@H](c2ccnc3ccc(F)cc32)CC1 [Linrodostat]
remaining activity at 1.25 µM ([1]; Well no.=8267): 97.9% | remaining activity at 3.75 µM ([2]; Well no.=8267): 99.1%

C=CCN1C[C@H](C)N([C@H](c2ccc(C(=O)N(CC)CC)cc2)c2cccc(OC)c2)C[C@H]1C [SNC80]
remaining activity at 1.25 µM ([1]; Well no.=1216): 99.3% | remaining activity at 3.75 µM ([2]; Well no.=1216): 102%

CC(C)c1cc(/C=C(\C#N)C(=O)NCCCc2ccccc2)cc(C(C)C)c1O [Tyrphostin SU 1498]
remaining activity at 1.25 µM ([1]; Well no.=5970): 90% | remaining activity at 3.75 µM ([2]; Well no.=5970): 89.5%

NC(=O)C1CCCc2c1[nH]c1ccc(Cl)cc21 (stereo not shown) [EX 527]
remaining activity at 1.25 µM ([1]; Well no.=5287): 99% | remaining activity at 3.75 µM ([2]; Well no.=5287): 97.8%

OC(Cn1cncn1)(Cn1cncn1)c1ccc(F)cc1F [Fluconazole]
remaining activity at 1.25 µM ([1]; Well no.=2132): 99.9% | remaining activity at 3.75 µM ([2]; Well no.=2132): 100%

COc1c2c(cc3c1OCO3)CCN(C)C2 [Hydrocotarnine HBr]
remaining activity at 1.25 µM ([1]; Well no.=3462): 102% | remaining activity at 3.75 µM ([2]; Well no.=3462): 103%

Fc1ccc(Cl)cc1-c1nc(Nc2ccncc2)c2nccnc2n1 [SD 208 - 2-(5-Chloro-2-fluorophenyl)-4-[(4-pyridyl)amino]pteridine]
remaining activity at 1.25 µM ([1]; Well no.=2680): 97.3% | remaining activity at 3.75 µM ([2]; Well no.=2680): 99.7%

O=C(O)P(=O)(O)O [Foscarnet Sodium]
remaining activity at 1.25 µM ([1]; Well no.=5321): 101% | remaining activity at 3.75 µM ([2]; Well no.=5321): 95.6%

CC(=O)OC[C@H]1O[C@@H](n2ccc(=O)[nH]c2=O)[C@H](OC(C)=O)[C@@H]1OC(C)=O [Uridine triacetate]
remaining activity at 1.25 µM ([1]; Well no.=7996): 92.7% | remaining activity at 3.75 µM ([2]; Well no.=7996): 94.1%

O=c1[nH]cnc2c1ncn2[C@H]1CC[C@@H](CO)O1 [Didanosine]
remaining activity at 1.25 µM ([1]; Well no.=1868): 97.7% | remaining activity at 3.75 µM ([2]; Well no.=1868): 104%

c1cncc([C@@H]2CCCCN2)c1 (racemic)
remaining activity at 1.25 µM ([1]; Well no.=3477): 102% | remaining activity at 3.75 µM ([2]; Well no.=3477): 99.3%

COc1cc2nc(C3CC3)nc(N3CCN(c4ccccc4OC)CC3)c2cc1OC [ML314]
remaining activity at 1.25 µM ([1]; Well no.=7913): 97.1% | remaining activity at 3.75 µM ([2]; Well no.=7913): 98.2%

O=C(O)c1cn(-c2ccc(F)cc2)c2cc(N3CCNCC3)c(F)cc2c1=O [Sarafloxacin]
remaining activity at 1.25 µM ([1]; Well no.=2241): 101% | remaining activity at 3.75 µM ([2]; Well no.=2241): 101%

CNC(=O)c1ccc2cc([C@@]3(O)CCn4cncc43)ccc2c1 [TAK-700 (Orteronel)]
remaining activity at 1.25 µM ([1]; Well no.=4725): 98.2% | remaining activity at 3.75 µM ([2]; Well no.=4725): 96.7%

Cc1cnc(-c2cc(N3CCN(C(=O)CCS(C)(=O)=O)CC3)ncc2Cl)c(C)c1 [PF-5274857 hydrochloride]
remaining activity at 1.25 µM ([1]; Well no.=5701): 102% | remaining activity at 3.75 µM ([2]; Well no.=5701): 103%

CCOc1cc2ncc(C#N)c(Nc3ccc(F)c(Cl)c3)c2cc1NC(=O)/C=C/CN(C)C [(2E)-N-[4-(3-chloro-4-fluoroanilino)-3-cyano-7-ethoxy-6-quinolinyl]-4-(dimethylamino)-2-butenamide]
remaining activity at 1.25 µM ([1]; Well no.=5707): 101% | remaining activity at 3.75 µM ([2]; Well no.=5707): 102%

NCCc1c[nH]c2ccccc12 [Tryptamine hydrochloride]
remaining activity at 1.25 µM ([1]; Well no.=291): 97.7% | remaining activity at 3.75 µM ([2]; Well no.=291): 96.5%

N#C[C@H]1[C@H](O)[C@@H](CO)O[C@H]1n1ccc(N)nc1=O [CNDAC (hydrochloride)]
remaining activity at 1.25 µM ([1]; Well no.=7866): 91.6% | remaining activity at 3.75 µM ([2]; Well no.=7866): 94.8%

OCc1ccc(-c2ccc(-c3ccc(CO)s3)o2)s1 [RITA (NSC 652287)]
remaining activity at 1.25 µM ([1]; Well no.=4741): 103% | remaining activity at 3.75 µM ([2]; Well no.=4741): 108%

CC(=O)C(C)=O [2,3-Butanedione]
remaining activity at 1.25 µM ([1]; Well no.=687): 98.3% | remaining activity at 3.75 µM ([2]; Well no.=687): 97.2%

Cc1ccc(-c2c(-c3nn(C)c4ncnc(N5CC[C@H](N6CCCCC6)C5)c34)cnn2C)cc1 [CYP3cide]
remaining activity at 1.25 µM ([1]; Well no.=5646): 95.6% | remaining activity at 3.75 µM ([2]; Well no.=5646): 91.1%

CNCCCN1c2ccccc2CCc2ccccc21 [Desipramine hydrochloride]
remaining activity at 1.25 µM ([1]; Well no.=545): 99.2% | remaining activity at 3.75 µM ([2]; Well no.=545): 101%

N#Cc1c(-c2ccccc2)no[n+]1[O-] [4-Phenyl-3-furoxancarbonitrile]
remaining activity at 1.25 µM ([1]; Well no.=998): 97.8% | remaining activity at 3.75 µM ([2]; Well no.=998): 97.8%

CCN(CC)CCCC(C)Nc1cc(/C=C/c2ccccc2Cl)nc2cc(Cl)ccc12 (stereo not shown) [XIB4035]
remaining activity at 1.25 µM ([1]; Well no.=5692): 89% | remaining activity at 3.75 µM ([2]; Well no.=5692): 89.5%

NC(=O)c1ccc2[nH]ccc2c1 [SD169]
remaining activity at 1.25 µM ([1]; Well no.=2797): 106% | remaining activity at 3.75 µM ([2]; Well no.=2797): 106%

CN1CCc2cc(Cl)c(O)cc2[C@@H](c2ccccc2)C1 [SCH 23390 (hydrochloride)]
remaining activity at 1.25 µM ([1]; Well no.=7813): 109% | remaining activity at 3.75 µM ([2]; Well no.=7813): 102%

COc1cccc(OC)c1OCCNCC1COc2ccccc2O1 (stereo not shown) [WB-4101 hydrochloride]
remaining activity at 1.25 µM ([1]; Well no.=443): 96% | remaining activity at 3.75 µM ([2]; Well no.=443): 99.1%

COc1cc2ncnc(Nc3cccc(Cl)c3)c2cc1OC [Tyrphostin AG 1478]
remaining activity at 1.25 µM ([1]; Well no.=1191): 100% | remaining activity at 3.75 µM ([2]; Well no.=1191): 100%

O=C(O)/C=C/c1ccc(Cn2ccnc2)cc1 [Ozagrel]
remaining activity at 1.25 µM ([1]; Well no.=1886): 91.5% | remaining activity at 3.75 µM ([2]; Well no.=1886): 93.9%

CCN(CC)CCNC(=O)c1c(C)[nH]c(/C=C2\C(=O)Nc3ccc(F)cc32)c1C [Sunitinib]
remaining activity at 1.25 µM ([1]; Well no.=2703): 102% | remaining activity at 3.75 µM ([2]; Well no.=2703): 100%

C=C1/C(=C\C=C2/CCC[C@]3(C)[C@@H]([C@H](C)CCCC(C)C)CC[C@@H]23)C[C@@H](O)C[C@@H]1O [Alfacalcidol]
remaining activity at 1.25 µM ([1]; Well no.=1854): 96.4% | remaining activity at 3.75 µM ([2]; Well no.=1854): 99.8%
